Reference: PMC7539012, “Hyperphosphorylated tau aggregation and cytotoxicity modulators screen identified prescription drugs linked to Alzheimer's disease and cognitive functions” (Scientific Reports, 2020)
Where a name gives a salt, the structure may show the parent alone.

Test system: T1, 1N4R p-tau
T1 construct: made in house; host or cells: E. coli (PIMAX system)
Assay: p-tau aggregation modulator screen of 1280-compound library (ThS fluorescence net change over 16 h);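 as to ThS net change: 30 µM compound with 6 µM p-tau over 16 h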
Type: biochemical
Parameters: key to PTAI>2SD: *: PTAI>2SD; key to PTAI>3SD: *: PTAI>3SD
Details: not given

| Compound | ThS net change |
| --- | --- |
| Tropisetron HCl | 428 |
| Cc1c(Cl)cccc1Nc1ncccc1C(=O)O.NCCCC[C@H](N)C(=O)O [Clonixin Lysinate] | 462 |
| CC1(C)[C@H](C(=O)O)N2C(=O)C[C@H]2S1(=O)=O [Sulbactam] | 463 |
| CN(C)CCCN1c2ccccc2Sc2ccc(C(F)(F)F)cc21 [Triflupromazine hydrochloride] | 280 |
| C/C(=C(/CCO)SSCC1CCCO1)N(C=O)Cc1cnc(C)nc1N.Cl (centres unmarked) [Fursultiamine Hydrochloride] | 360 |

Same assay, conditions: 1280-compound library screen; ThS fluorescence net change over 16 h

| Compound | ThS net change |
| --- | --- |
| CCN(CC)C(=O)c1ccc(O)c(OC)c1 [Ethamivan] | 386 |
| CN(C)CCC(c1ccc(Br)cc1)c1ccccn1 (centres unmarked) [Brompheniramine maleate] | 379 |
| Cc1onc(-c2ccccc2Cl)c1C(=O)N[C@@H]1C(=O)N2[C@@H]1SC(C)(C)[C@@H]2C(=O)[O-].[Na+] [Cloxacillin sodium salt] | 380 |
| O=C1CCc2cc(OCCCCc3nnnn3C3CCCCC3)ccc2N1 [Cilostazol] | 397 |
| CCc1ccc(CCOc2ccc(CC3SC(=O)NC3=O)cc2)nc1 (centres unmarked) [Pioglitazone] | 410 |
| C[C@@H](O)[C@H]1C(=O)N2C(C(=O)O)=C(SCCN=CN)C[C@H]12 [Imipenem] | 385 |
| Nc1nc(Cl)nc2c1ncn2[C@H]1C[C@H](O)[C@@H](CO)O1 [Cladribine] | 399 |
| C=CCSCC1Nc2cc(Cl)c(S(N)(=O)=O)cc2S(=O)(=O)N1 (centres unmarked) [Althiazide] | 409 |
| Cc1nccn1CC1CCc2c(c3ccccc3n2C)C1=O.Cl (centres unmarked) [Ondansetron Hydrochloride] | 407 |
| O=C(c1ccccc1)c1ccc2n1CCC2C(=O)O (centres unmarked) [Ketorolac tromethamine] | 382 |
| CCN(CC)C(=O)N1CCN(C)CC1 [Diethylcarbamazine citrate] | 391 |
| O=C(O)c1ccccc1OP(=O)(O)O [Fosfosal] | 380 |
| CO/N=C(\C(=O)N[C@@H]1C(=O)N2C(C(=O)O)=C(COC(C)=O)CS[C@H]12)c1csc(N)n1 [Cefotaxime sodium salt] | 384 |
| N=C(N)NC(=O)c1nc(Cl)c(N)nc1N [Amiloride hydrochloride dihydrate] | 401 |
| CCS(=O)(=O)CCn1c([N+](=O)[O-])cnc1C [Tinidazole] | 392 |
| CCCCC1(COC(=O)CCC(=O)O)C(=O)N(c2ccccc2)N(c2ccccc2)C1=O [Suxibuzone] | 392 |
| COc1ccc(C(=O)c2ccccc2)c(O)c1 [Oxybenzone] | 383 |
| CC(C)NCC(O)c1ccc(NS(C)(=O)=O)cc1 (centres unmarked) [Sotalol hydrochloride] | 404 |
| Cn1c(=O)c2c(ncn2CC(O)CO)n(C)c1=O (centres unmarked) [Diprophylline] | 381 |
| CCCCOc1ccc(C(=O)CCN2CCCCC2)cc1 [Dyclonine hydrochloride] | 406 |
| O=C(CCCN1CC=C(n2c(=O)[nH]c3ccccc32)CC1)c1ccc(F)cc1 [Droperidol] | 412 |
| CCOC(=O)c1ccc(N)cc1 [Benzocaine] | 379 |
| CCN(CC)CCOCCOC(=O)C1(c2ccccc2)CCCC1 [Carbetapentane citrate] | 402 |

Same assay, conditions: 1280-compound library screen; […]

| Compound | ThS net change |
| --- | --- |
| O=[N+]([O-])O[C@H]1CO[C@H]2[C@@H]1OC[C@H]2O[N+](=O)[O-] [Isosorbide dinitrate] | 405 |
| COc1ccc(OC)c(C(O)CNC(=O)CN)c1 (centres unmarked) [Midodrine hydrochloride] | 385 |
| CCCCOC(=O)c1ccc(O)cc1 [Butylparaben] | 396 |
| CN1C(=O)CCS(=O)(=O)C1c1ccc(Cl)cc1 (centres unmarked) [Chlormezanone] | 389 |

Same assay, conditions: flag: p-tau aggregation inhibitor, ThS net change more than 2 SD from mean

| Compound | PTAI>2SD |
| --- | --- |
| CO[C@H]1/C=C/O[C@@]2(C)Oc3c(C)c(O)c4c(O)c(c5c(nc6cc(C)ccn65)c4c3C2=O)NC(=O)/C(C)=C\C=C\[C@H](C)[C@H](O)[C@@H](C)[C@@H](O)[C@@H](C)[C@H](OC(C)=O)[C@@H]1C [Rifaximin] | * |

Same assay, conditions: flag: p-tau aggregation inhibitor, ThS net change more than 3 SD from mean

| Compound | PTAI>3SD |
| --- | --- |
| C=Cc1c(C)c2cc3nc(cc4[nH]c(cc5nc(cc1[nH]2)C(C)=C5CCC(=O)O)c(CCC(=O)OC)c4C)[C@@]1(C)C3=CC=C(C(=O)OC)C1C(=O)OC (some centres unmarked) [Verteporfin] | * |

Same assay, conditions: library screen, ThS fluorescence net change over 16 h with p-tau

| Compound | ThS net change |
| --- | --- |
| CC[C@H]1OC(=O)[C@H](C)[C@@H](O[C@H]2C[C@@](C)(OC)[C@@H](O)[C@H](C)O2)[C@H](C)[C@@H](O[C@@H]2O[C@H](C)C[C@H](N(C)C)[C@H]2O)[C@](C)(O)C[C@@H](C)C(=O)[C@H](C)[C@@H](O)[C@]1(C)O [Erythromycin] | 314 |
| CO[C@H]1/C=C/O[C@@]2(C)Oc3c(C)c(O)c4c(O)c(c5c(nc6cc(C)ccn65)c4c3C2=O)NC(=O)/C(C)=C\C=C\[C@H](C)[C@H](O)[C@@H](C)[C@@H](O)[C@@H](C)[C@H](OC(C)=O)[C@@H]1C [Rifaximin] | 112 |
| CN1CCOC(c2ccccc2)c2ccccc2C1 (centres unmarked) [Nefopam hydrochloride] | 324 |
| CN1CCCN=C1/C=C/c1cccs1.O=C(O)C(O)C(O)C(=O)O [Pyrantel tartrate] | 312 |
| CCN(CC)CCOC(=O)C(c1ccccc1)c1ccccc1 [Adiphenine hydrochloride] | 318 |
| CO[C@]12C[C@@H](COC(=O)c3cncc(Br)c3)CN(C)[C@@H]1Cc1cn(C)c3cccc2c13 [Nicergoline] | 260 |
| O=C1Cc2cc(CCN3CCN(c4nsc5ccccc45)CC3)c(Cl)cc2N1 [Ziprasidone Hydrochloride] | 293 |
| Cc1cc(N)c2ccccc2[n+]1CCCCCCCCCC[n+]1c(C)cc(N)c2ccccc21 [Dequalinium dichloride] | 297 |
| CN1CCN(CCCN2c3ccccc3Sc3ccc(C(F)(F)F)cc32)CC1 [Trifluoperazine dihydrochloride] | 299 |
| C=Cc1c(C)c2cc3nc(cc4[nH]c(cc5nc(cc1[nH]2)C(C)=C5CCC(=O)O)c(CCC(=O)OC)c4C)[C@@]1(C)C3=CC=C(C(=O)OC)C1C(=O)OC (some centres unmarked) [Verteporfin] | -157 |

Same assay, conditions: p-tau aggregation modulator screen of 1280-compound library; ThS fluorescence net change

| Compound | ThS net change |
| --- | --- |
| c1ccc(C2CN3CCSC3=N2)cc1 (centres unmarked) [Tetramisole hydrochloride] | 368 |
| O=C(COc1ccc(Cl)cc1)N1CCN(Cc2ccc3c(c2)OCO3)CC1 [Fipexide hydrochloride] | 359 |
| Cc1cccc(C)c1NC(=O)CN1CCN(CCCC(c2ccc(F)cc2)c2ccc(F)cc2)CC1 [Lidoflazine] | 341 |
| CC(C)NCC(O)c1cc(O)cc(O)c1.CC(C)NCC(O)c1cc(O)cc(O)c1.O=S(=O)(O)O (centres unmarked) | 362 |
| CC(COc1ccccc1)NC(C)C(O)c1ccc(O)cc1 (centres unmarked) [Isoxsuprine hydrochloride] | 347 |
| CN(C)CCN1C(=O)c2ccccc2N(C)c2ccccc21.Cl [Dibenzepine hydrochloride] | 368 |
| Cc1ccccc1OCC(O)CO (centres unmarked) [Mephenesin] | 350 |
| CC(=O)/N=c1/sc(S(N)(=O)=O)nn1C [Methazolamide] | 377 |
| CC(C(=O)O)c1cccc(C(=O)c2ccccc2)c1 (centres unmarked) [Ketoprofen] | 376 |
| Cc1cc(NC(=O)C2=C(O)c3ccccc3S(=O)(=O)N2C)no1 [Isoxicam] | 364 |
| Cc1ccc(C)c(OCCCC(C)(C)C(=O)O)c1 [Gemfibrozil] | 353 |
| CCCCC(O)c1ccccc1 (centres unmarked) [Fenipentol] | 375 |
| CCOC(=O)C1=C(C)NC(C)=C(C(=O)OC)C1c1cccc([N+](=O)[O-])c1 (centres unmarked) [Nitrendipine] | 344 |
| O=C(Nc1ccccc1)OCC(CN1CCCCC1)OC(=O)Nc1ccccc1 (centres unmarked) [Diperodon hydrochloride] | 347 |
| Cc1cc(=O)oc2cc(O)ccc12 [Hymecromone] | 357 |

Same assay, conditions: p-tau aggregation modulator screen of 1280-compound library; […]

| Compound | ThS net change |
| --- | --- |
| NCC1(CC(=O)O)CCCCC1 [Gabapentin] | 363 |
| CC[C@@]1(O)C(=O)OCc2c1cc1n(c2=O)Cc2cc3ccccc3nc2-1 [Camptothecine (S,+)] | 350 |

Same assay, conditions: p-tau aggregation modulator screen of the compound library, ThS fluorescence net change

| Compound | ThS net change |
| --- | --- |
| Cc1[nH]c(=O)c(C#N)cc1-c1ccncc1 [Milrinone] | 423 |
| CN1[C@@H]2CC[C@H]1CC(OC1c3ccccc3CCc3ccccc31)C2.O=C(O)CC(O)(CC(=O)O)C(=O)O (some centres unmarked) [Deptropine citrate] | 455 |
| CN(C)c1nc(N(C)C)nc(N(C)C)n1 [Altretamine] | 414 |
| CN1CCC(=C2c3ccccc3CCc3sccc32)CC1.O=C(O)CC(O)C(=O)O [Pizotifen malate] | 437 |
| C[C@H]1O[C@H](O[C@H]2[C@H](O)[C@@H](O)[C@@H](O[C@H]3[C@H](O)[C@@H](O)C(O)O[C@@H]3CO)O[C@@H]2CO)[C@H](O)[C@@H](O)[C@@H]1N[C@H]1C=C(CO)[C@@H](O)[C@H](O)[C@H]1O (some centres unmarked) [Acarbose] | 414 |
| CN(C)CCOC(c1ccc(Cl)cc1)c1ccccn1.O=C(O)/C=C\C(=O)O (centres unmarked) [Carbinoxamine maleate salt] | 427 |
| CC[C@H](C)[C@H]1O[C@]2(C=C[C@@H]1C)C[C@@H]1C[C@@H](C/C=C(\C)[C@@H](O[C@H]3C[C@H](OC)[C@@H](O[C@H]4C[C@H](OC)[C@@H](O)[C@H](C)O4)[C@H](C)O3)[C@@H](C)/C=C/C=C3\CO[C@@H]4[C@H](O)C(C)=C[C@@H](C(=O)O1)[C@]34O)O2 [Avermectin B1a] | 676 |
| CCCc1cc(=O)[nH]c(=S)[nH]1 [Propylthiouracil] | 422 |
| CN(Cc1ccc(C(C)(C)C)cc1)Cc1cccc2ccccc12 [Butenafine Hydrochloride] | 436 |
| CCOC(=O)C1=C(C)NC(C)=C(C(=O)OCC)C1c1ccccc1/C=C/C(=O)OC(C)(C)C [Lacidipine] | 452 |
| C[C@H](Cc1cc2c(c(C(N)=O)c1)N(CCCO)CC2)NCCOc1ccccc1OCC(F)(F)F [Silodosin] | 478 |
| O=C(CCNNC(=O)c1ccncc1)NCc1ccccc1 [Nialamide] | 470 |
| NC12CC3CC(CC(C3)C1)C2.NC12CC3CC(CC(C3)C1)C2.O=C(O)/C=C/C(=O)O [Adamantamine fumarate] | 423 |
| NS(=O)(=O)c1cc(C(=O)O)cc(N2CCCC2)c1Oc1ccccc1 [Piretanide] | 435 |
| CN1CCC(=C2c3ccccc3CCc3cccnc32)CC1 [Azatadine maleate] | 417 |
| CCC1(c2ccccc2)NC(=O)N(C)C1=O (centres unmarked) [Mephenytoin] | 453 |
